In the supplement of paper PMC12137928 one finds IC50 cell viability data, which are given here for 27 compounds.

This assay deals with HCT116. The following applies: 72 h. The gist of the method: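 HCT116 cells went into 1536-well plates at 250 per well. CellTiter-Glo luminescence was expressed relative to vehicle (0%) and positive control (-100%) and then pattern-corrected. Both IC50 and maximal efficacy were taken from four-parameter Hill fits.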

Where a name gives a salt, the structure may show the parent alone.

With `CC1(C)O[C@@H]2C[C@H]3[C@@H]4CCC5=CC(=O)C=C[C@]5(C)[C@H]4[C@@H](O)C[C@]3(C)[C@]2(C(=O)CO)O1` [Desonide], the IC50 cell viability is, setting by setting: (ICRF193 0 nM) above 45.8 µM; (ICRF193 200 nM) above 45.8 µM.
As to `Cc1cc(O)c(C(=O)N[C@@H](C(=O)N[C@@H]2C(=O)N3C(C(=O)O)=C(CSc4nnnn4C)CS[C@H]23)c2ccc(O)cc2)cn1` [Cefpiramide (sodium)], the IC50 cell viability is above 45.8 µM (ICRF193 0 nM) and above 45.8 µM (ICRF193 200 nM).
Turning to `CCC(Cc1c(I)cc(I)c(N)c1I)C(=O)O` (centres undefined) [Iopanoic acid], the IC50 cell viability (ICRF193 0 nM) was above 45.8 µM and the IC50 cell viability (ICRF193 200 nM) is above 45.8 µM.
For the compound `Cc1cc(NS(=O)(=O)c2ccc(N)cc2)nc(C)n1` [Sulfisomidine], the IC50 cell viability (ICRF193 0 nM) was above 45.8 µM and the IC50 cell viability (ICRF193 200 nM) is above 45.8 µM.
On to `CCCCCCCCCCCCCCCCO` [1-Hexadecanol], for which the IC50 cell viability reads like this: (ICRF193 0 nM) above 45.8 µM; (ICRF193 200 nM) above 45.8 µM.
As to `CN(C)C(=N)NC(=N)N` [Metformin], the IC50 cell viability reads like this: (ICRF193 0 nM) above 45.8 µM; (ICRF193 200 nM) above 45.8 µM.
For the compound `CC1=CCC(O)(C(C)C)CC1` (centres undefined) [Terpineol], the IC50 cell viability is above 45.8 µM (ICRF193 0 nM) and above 45.8 µM (ICRF193 200 nM).
For the compound `CC(C)NC(C)C` [Diisopropylamine], the IC50 cell viability by setting is: (ICRF193 0 nM) above 45.8 µM; (ICRF193 200 nM) above 45.8 µM.
As to `CCC1(C)OC(=O)N(C)C1=O` (centres undefined) [PARAMETHADIONE], the IC50 cell viability is, setting by setting: (ICRF193 0 nM) above 45.8 µM; (ICRF193 200 nM) above 45.8 µM.
Regarding `CO[C@H]1/C=C/O[C@@]2(C)Oc3c(C)c(O)c4c(c3C2=O)C2=NC3(CCN(CC(C)C)CC3)NC2=C(NC(=O)/C(C)=C\C=C\[C@H](C)[C@H](O)[C@@H](C)[C@@H](O)[C@@H](C)[C@H](OC(C)=O)[C@@H]1C)C4=O` [Rifabutin], the IC50 cell viability is, setting by setting: (ICRF193 0 nM) above 45.8 µM; (ICRF193 200 nM) above 45.8 µM.
`CN(C)CCOC(c1ccc(Cl)cc1)c1ccccn1` (centres undefined) [Carbinoxamine maleate] had an IC50 cell viability (ICRF193 0 nM) above 45.8 µM and an IC50 cell viability (ICRF193 200 nM) above 45.8 µM.
Take `CC[C@H]1CN2CC[C@H]1C[C@@H]2[C@@H](O)c1ccnc2ccc(OC)cc12` [Hydroquinidine HCl]: the IC50 cell viability by setting is: (ICRF193 0 nM) above 45.8 µM; (ICRF193 200 nM) above 45.8 µM.
For the compound `C=C1/C(=C\C=C2/CCC[C@]3(C)[C@@H]([C@H](C)OCCC(C)(C)O)CC[C@@H]23)C[C@@H](O)C[C@@H]1O` [Maxacalcitol-D6], the IC50 cell viability runs as follows: (ICRF193 0 nM) above 45.8 µM; (ICRF193 200 nM) above 45.8 µM.
Turning to `O=C(OCC1(COC(=O)c2cccnc2)CCCC(COC(=O)c2cccnc2)(COC(=O)c2cccnc2)C1O)c1cccnc1` [Nicomolol], the IC50 cell viability is, setting by setting: (ICRF193 0 nM) above 45.8 µM; (ICRF193 200 nM) above 45.8 µM.
With `CCCc1nn(C)c2c(=O)[nH]c(-c3cc(S(=O)(=O)N4CCN(C)CC4)ccc3OCC)nc12` [Sildenafil citrate], the IC50 cell viability by setting is: (ICRF193 0 nM) above 45.8 µM; (ICRF193 200 nM) above 45.8 µM.
`O=[N+]([O-])O[C@@H]1CO[C@H]2[C@@H]1OC[C@@H]2O` [Isosorbide mononitrate] displayed an IC50 cell viability (ICRF193 0 nM) above 45.8 µM and an IC50 cell viability (ICRF193 200 nM) above 45.8 µM.
For the compound `CC(=O)OCC1=C(C(=O)O)N2C(=O)[C@@H](NC(=O)CC#N)[C@H]2SC1` [Cefacetrile], the IC50 cell viability by setting is: (ICRF193 0 nM) above 45.8 µM; (ICRF193 200 nM) above 45.8 µM.
On to `CC1CCCC(C)N1CCCC(O)(c1ccccc1)c1ccccn1` (centres undefined) [Pirmenol], for which the IC50 cell viability is above 45.8 µM (ICRF193 0 nM) and above 45.8 µM (ICRF193 200 nM).
For the compound `O=C([O-])CC(O)C(=O)[O-].[Na+].[Na+]` (centres undefined) [Disodium 2-hydroxybutanedioate], the IC50 cell viability is, setting by setting: (ICRF193 0 nM) above 45.8 µM; (ICRF193 200 nM) above 45.8 µM.
As for `O=P(O)(O)CP(=O)(O)O` [Medronic acid], the IC50 cell viability is above 45.8 µM (ICRF193 0 nM) and above 45.8 µM (ICRF193 200 nM).
Take `COc1ccc2cc([C@H](C)C(=O)O)ccc2c1` [Naproxen sodium]: the IC50 cell viability reads like this: (ICRF193 0 nM) above 45.8 µM; (ICRF193 200 nM) above 45.8 µM.
For `CCn1cc(C(=O)O)c(=O)c2cc(F)c(N3CCNCC3)cc21` [Norfloxacin], the IC50 cell viability is above 45.8 µM (ICRF193 0 nM) and above 45.8 µM (ICRF193 200 nM).
`O=C(NC(Cc1cc(=O)[nH]c2ccccc12)C(=O)O)c1ccc(Cl)cc1` (centres undefined) [Rebamipide]: the IC50 cell viability runs as follows: (ICRF193 0 nM) above 45.8 µM; (ICRF193 200 nM) above 45.8 µM.
In the case of `CCOc1cc(N)c(Cl)cc1C(=O)NCC1CN(Cc2ccc(F)cc2)CCO1` (centres undefined) [Mosapride citrate], the IC50 cell viability is, setting by setting: (ICRF193 0 nM) above 45.8 µM; (ICRF193 200 nM) above 45.8 µM.
For `O=C(O)C[C@@H]1CC[C@H](NC(=O)Cc2cccs2)B(O)O1` [Vaborbactam], the IC50 cell viability by setting is: (ICRF193 0 nM) above 45.8 µM; (ICRF193 200 nM) above 45.8 µM.
As to `CS(=O)(=O)c1ccc([C@@H](O)[C@@H](CF)NC(=O)C(Cl)Cl)cc1` [Florfenicol], the IC50 cell viability by setting is: (ICRF193 0 nM) above 45.8 µM; (ICRF193 200 nM) above 45.8 µM.
The compound `CCC(C(=O)NC(=O)NC(C)=O)c1ccccc1` (centres undefined) [Acetylpheneturide] came in with an IC50 cell viability (ICRF193 0 nM) above 45.8 µM and an IC50 cell viability (ICRF193 200 nM) above 45.8 µM.
